Measurements as given in patent US20070287693A1, “Benzamide Derivatives That Act Upon The Glucokinase Enzyme” (priority 2004, published 2007).

Experiment: Plasma protein binding by equilibrium dialysis
Assay type: in vitro ADME
Conditions: rat plasma, 37° C., pH 7.4, read-out: % free in plasma
Protocol: 3) Measurements of Plasma Protein Binding of Compounds
The plasma protein binding of compounds was measured using the equilibrium dialysis technique (W. Lindner et al, J. Chromatography, 1996, 677, 1-28). Compound was dialysed at a concentration of 20 μM for 18 hours at 37° C. with plasma and isotonic phosphate buffer pH 7.4 (1 ml of each in the dialysis cell). A Spectrum® 20-cell equilibrium dialyser was used together with Teflon, semi-micro dialysis cells and Spectra/Por®2 membrane discs with a molecular weight cut off 12-14000 Dalton, 47 mm (supplied by PerBio Science UK Ltd, Tattenhall, Cheshire). Plasma and buffer samples are removed following dialysis and analysed using HPLCUV/MS (high performance liquid chromatography with UV and mass spec detection) to give the % free level in plasma. [drawing 39]

Molecule `CC[C@@H](CO)Oc1cc(Oc2ccc(C(=O)N3CCC3)cc2)cc(C(=O)Nc2ccn(C)n2)c1` [Example 13, 3-[4-(azetidin-1-ylcarbonyl)phenoxy]-5-{[(1S)-1-(hydroxymethyl)propyl]oxy}-N-(1-methyl-1H-pyrazol-3-yl)benzamide] has a fraction unbound at 18 h, 20 μM of 0.02.
